Measured values from US20050136444A1 (priority 2003, published 2005).
Structures can show the parent of a compound that is named as a salt.

Assays:
NPFF2 = target: T1, NPFF2 (Homo sapiens, UniProt Q9Y5X5); assay: Receptor Selection and Amplification Technology (R-SAT) functional assay, NPFF2; format: cell-based; conditions: R-SAT, Table 1; for Emax: Efficacy is relative to endogenous ligand, read-out: NPFF2 % Efficacy; for EC50 / NPFF2 pEC50: NA = No activity detectable at the highest dose tested (20 μM); for EC50: read-out: NPFF2 pEC50 (converted)
T1 construct: expressed in transfected cells; host or cells: NIH3T3
Experimental: (§1) Briefly, NIH3T3 cells were grown in 96 well tissue culture plates to 70-80% confluence. Cells were transfected for 16-20 h h with plasmid DNAs using Polyfect (Qiagen Inc.) as per manufacturer's protocols. R-SAT's were generally performed with 40 ng/well of receptor and 20 ng/well of β-galactosidase plasmid DNA. All receptor and G-protein constructs used were in the pSI-derived mammalian expression vector (Promega Inc) as described previously. […] For large-scale transfections, cells were transfected for 16-20 h, then trypsinized and frozen in DMSO. Frozen cells were later thawed, plated at ˜20,000 cells per well of a 96 half-area well plate that contained drug. With both methods, cells were then grown in a humidified atmosphere with 5% ambient CO2 for five days. Media was then removed from the plates and marker gene activity was measured by the addition of the β-galactosidase substrate o-nitrophenyl β-D-galactopyranoside (ONPG, in PBS with 0.5% NP-40). The resulting colorimetric reaction was measured in a spectrophotometric plate reader (Titertek Inc.) at 420 nm. All data were analyzed using the computer program XLFit (IDBSm).
(§2) R-SAT assay was conducted as set forth in […]

NPFF1 = NPFF1 (Homo sapiens, UniProt Q9GZQ6); assay: Receptor Selection and Amplification Technology (R-SAT) functional assay, NPFF1; format: cell-based; design: expressed in transfected cells; host or cells: NIH3T3; conditions: R-SAT, Table 1; for Emax: Efficacy is relative to endogenous ligand, read-out: NPFF1 % Efficacy; for EC50: NA = No activity detectable at the highest dose tested (20 μM), read-out: NPFF1 pEC50 (converted)
Experimental: as §1, §2

NPFF1, sequence (Q9GZQ6 whole entry, species assumed): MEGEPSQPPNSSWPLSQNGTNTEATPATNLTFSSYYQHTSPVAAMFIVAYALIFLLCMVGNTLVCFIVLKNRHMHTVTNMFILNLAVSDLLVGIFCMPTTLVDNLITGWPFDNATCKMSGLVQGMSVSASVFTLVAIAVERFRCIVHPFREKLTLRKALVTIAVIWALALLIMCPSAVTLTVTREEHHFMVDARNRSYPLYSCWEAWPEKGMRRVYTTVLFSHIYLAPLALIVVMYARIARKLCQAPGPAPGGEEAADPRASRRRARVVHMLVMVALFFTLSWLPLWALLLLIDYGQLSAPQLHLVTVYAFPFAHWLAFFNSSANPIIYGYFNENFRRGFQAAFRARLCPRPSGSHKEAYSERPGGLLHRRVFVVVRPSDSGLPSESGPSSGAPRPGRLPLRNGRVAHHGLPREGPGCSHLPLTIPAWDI
T1 sequence (Q9Y5X5 103-522): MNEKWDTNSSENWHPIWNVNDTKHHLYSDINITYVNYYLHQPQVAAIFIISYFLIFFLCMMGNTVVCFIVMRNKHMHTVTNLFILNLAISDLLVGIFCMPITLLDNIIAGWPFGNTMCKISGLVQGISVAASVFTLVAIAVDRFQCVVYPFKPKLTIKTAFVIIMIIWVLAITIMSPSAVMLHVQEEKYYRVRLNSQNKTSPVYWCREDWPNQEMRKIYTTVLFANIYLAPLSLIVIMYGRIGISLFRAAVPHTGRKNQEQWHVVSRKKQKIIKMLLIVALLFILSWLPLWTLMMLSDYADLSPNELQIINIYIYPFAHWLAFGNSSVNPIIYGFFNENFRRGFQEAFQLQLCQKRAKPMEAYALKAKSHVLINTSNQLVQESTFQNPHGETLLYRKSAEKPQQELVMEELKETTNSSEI

Emax (NPFF2) [%] | EC50 (NPFF2) [µM] | Emax (NPFF1) [%] | EC50 (NPFF1) [µM] | NPFF2 pEC50 (NPFF2) | Structure (SMILES)
50 | 2 | 11 |  |  | N=C(N)NN=Cc1ccc(F)c2ccccc12 [Compound 2072, 1-[(4-Fluoro-1-naphthalen-1-yl)methylideneamino]guanidine Hydrochloride]
78 | 3.98 | 36 | 12.6 |  | CC(=NNC(=N)N)c1ccc2c(c1)OCO2 [Compound 3032, 1-[1-(Benzo[1,3]dioxol-5-yl)ethylideneamino]guanidine Hydrochloride]
86 | 2.51 | 12 |  |  | Cc1ccc(C=NNC(=N)N)cc1C [Compound 3019, 1-(3,4-Dimethylbenzylideneamino)guanidine Hydrochloride]
82 | 0.631 | 84 | 1.26 |  | CCN(CCO)c1ccc(C=NNC(=N)N)c(C)c1 [Compound 3036, 1-{4-[Ethyl-(2-hydroxyethyl)amino]-2-methylbenzylideneamino}guanidine Hydrochloride]
79 | 5.01 | 31 | 10 |  | COc1cc(Cl)cc(C=NNC(=N)N)c1OC [Compound 2059, 1-(5-Chloro-2,3-dimethoxybenzylideneamino)guanidine Hydrochloride]
60 | 0.501 | 25 | 1 |  | N=C(N)NN=Cc1cccc(-c2ccccc2C(F)(F)F)c1 [Compound 2058, 1-[3-(2-Trifluoromethylphenyl)benzylideneamino]guanidine Hydrochloride]
69 | 2 | 81 | 3.16 |  | CCCCC(=NNC(=N)N)c1ccc(N(C)C)cc1 (mixture of isomers) [Compound 3035, 1-[1-(4-Dimethylaminophenyl)pentylideneamino]guanidine]
64 | 2 | 37 | 7.94 |  | COc1cc(OC)c(C=NNC(=N)N)cc1Br [Compound 4015, 1-(5-Bromo-2,4-dimethoxybenzylideneamino)guanidine Hydrochloride]
78 | 2.51 | 36 | 3.16 |  | N=C(N)NN=Cc1ccc(C(F)(F)F)c(F)c1 [Compound 2063, 1-[3-Fluoro-4-(trifluoromethyl)benzylideneamino]guanidine Hydrochloride]
96 | 10 | 21 |  |  | CCOCCOc1ccc(/C=N/NC(=N)N)cc1Cl [Compound 2054, 1-[3-Chloro-4-(2-ethoxy-ethoxy)benzylideneamino])guanidine Acetate]
48 | 3.98 | 26 | 3.98 |  | N=C(N)NN=Cc1ccc(C(F)(F)F)cc1F [Compound 2060, 1-[2-Fluoro-4-(trifluoromethyl)benzylideneamino]guanidine Hydrochloride]
80 | 2.51 | 20 | 3.98 |  | N=C(N)NN=Cc1ccc(C(F)(F)F)cc1 [Compound 4002, 1-[(4-Trifluoromethyl)benzylideneamino]guanidine Hydrochloride]
40 | 3.16 | 8 |  |  | N=C(N)NN=Cc1cc(C(F)(F)F)ccc1Cl [Compound 2069, 1-[2-Chloro-5-(trifluoromethyl)benzylideneamino]guanidine Hydrochloride]
62 | 2.51 | 6 |  |  | N=C(N)NN=Cc1ccc(Cl)c(F)c1 [Compound 2030, 1-(4-Chloro-3-fluorobenzylideneamino)guanidine Hydrochloride]
51 |  |  |  | 5.2 | CN(C)c1ccc(/C=N/NC(=N)N)cc1[N+](=O)[O-] [Compound 1012]
87 | 3.98 | 51 | 3.98 |  | CC(C)Oc1ccc(C=NNC(=N)N)cc1 [Compound 2025, 1-(4-Isopropoxybenzylideneamino)guanidine]
32 | 5.01 | -1 |  |  | COc1ccc(OC)c(C(C)=NNC(=N)N)c1 (mixture of isomers) [Compound 3029, 1-[1-(2,5-Dimethoxyphenyl)ethylideneamino]guanidine Hydrochloride]
41 | 6.31 | 41 | 12.6 |  | COc1ccc(C=NNC(=N)N)c(OC)c1 [Compound 4003, 1-(2,4-Dimethoxybenzylideneamino)guanidine Hydrochloride]
84 | 6.31 | 24 | 7.94 |  | COc1ccc2ccccc2c1C=NNC(=N)N [Compound 3007, 1-[1-(2-Methoxy-naphthalen-1-yl)methylideneamino]guanidine Hydrochloride]
55 | 1.26 | 13 |  |  | CCCCCc1ccc(C=NNC(=N)N)cc1 [Compound 3022, 1-(4-n-pentylbenzylideneamino)guanidine Hydrochloride]

Emax (NPFF2) [%] | EC50 (NPFF2) [µM] | Emax (NPFF1) [%] | EC50 (NPFF1) [µM] | NPFF2 pEC50 (NPFF2) | Structure (SMILES)
51 | 1.58 | 13 |  |  | COc1ccc(C=NNC(=N)N)cc1C(F)(F)F [Compound 2073, 1-[4-Methoxy-3-(trifluoromethyl)benzylideneamino]guanidine Hydrochloride]
46 | 0.501 | 43 | 0.398 |  | CC(=NNC(=N)N)c1ccc(N2CCCCC2)cc1 [Compound 3039, 1-[1-(4-Piperidin-1-yl-phenyl)ethylideneamino]guanidine Hydrochloride]
65 | 1.26 | 72 | 1 |  | CCN(CC)c1ccc(C=NNC(=N)N)cc1 [Compound 3038, 1-(4-Diethylaminobenzylideneamino)guanidine Hydrochloride]
70 | 1.26 | 26 | 1 |  | N=C(N)NN=Cc1cc2c(cc1Br)OCO2 [Compound 3015, 1-[(6-Bromobenzo[1,3]dioxol-5-yl)methylideneamino]guanidine Hydrochloride]
49 |  |  |  |  | CCCCC/C(=N/NC(=N)N)c1cccc(C)c1 [Compound 1001]
54 | 5.01 | 13 |  |  | Cc1cccc(C=NNC(=N)N)c1 [Compound 3018, 1-(3-Methylbenzylideneamino)guanidine Hydrochloride]
101 | 2 | 28 | 3.16 |  | CCc1ccc(C=NNC(=N)N)cc1 [Compound 3025, 1-(4-Ethylbenzylideneamino)guanidine Hydrochloride]
106 |  |  |  |  | CCCC/C(=N\NC(=N)N)c1ccc(O)cc1 [Compound 1004]
97 |  |  |  | 5.0 | COc1ccc(/C=N/NC(=N)N)cc1 [Compound 1014]
49 | 1.58 |  |  |  | CC(=NNC(=N)N)c1cccc(Br)c1 [Compound 2003, 1-[1-(3-Bromophenyl)ethylideneamino]guanidine Hydrochloride]
39 | 2.51 |  |  |  | N=C(N)NN=Cc1cccc(C(F)(F)F)c1 [Compound 2002, 1-[3-(Trifluoromethyl)benzylideneamino]guanidine Hydrochloride]
70 |  |  |  | 5.5 | COc1ccc(/C=N/NC(=N)N)cc1I [Compound 1005]
51 | 0.794 |  |  |  | N=C(N)NN=Cc1c2ccccc2cc2ccccc12 [Compound 2006, 1-[(Anthracen-9-yl)methylideneamino]guanidine Hydrochloride]
41 |  |  |  | 6.2 | CCCCC/C(=N\NC(=N)N)c1ccc(C)cc1 [Compound 1002]
47 | 2 |  |  |  | COc1ccc(C=NNC(=N)N)cc1Cl [Compound 2043, 1-(3-Chloro-4-methoxybenzylideneamino)guanidine Hydrochloride]
60 | 0.794 |  |  |  | C=CCOc1ccc(C=NNC(=N)N)cc1Cl [Compound 2042, 1-(4-Allyloxy-3-chlorobenzylideneamino)guanidine Hydrochloride]
53 |  |  |  |  | C/C(=N\NC(=N)N)c1cc(Br)ccc1Br [Compound 1006]
102 |  |  |  |  | N=C(N)N/N=C/c1ccc(Br)cc1 [Compound 1007]
38 | 10 |  |  |  | N=C(N)NN=Cc1cc(F)ccc1[N+](=O)[O-] [Compound 2004, 1-(5-Fluoro-2-nitrobenzylideneamino)guanidine Hydrochloride]

Structure (SMILES) | Emax (NPFF2) [%] | EC50 (NPFF2) [µM] | Emax (NPFF1) [%] | EC50 (NPFF1) [µM] | NPFF2 pEC50 (NPFF2)
C/C(=N\NC(=N)N)c1ccccc1 [Compound 1010] | 51 |  |  |  | 5.2
N#CCCCCOc1ccc(C=NNC(=N)N)cc1Cl [Compound 2044, 1-[3-Chloro-4-(4-cyanobutoxy)benzylideneamino]guanidine Hydrochloride] | 45 | 3.98 |  |  | 
